pIC50, pKd: −log10 of the molar value.
target: T1, PIK3Cγ_h (Homo sapiens, UniProt P48736); assay: KINOMEscan enzyme binding assay, PIK3Cγ; conditions: KINOMEscan (DiscoveRx)
T1 construct: purchased DiscoveRx Corporation, San Diego (contract assay service)
Description: (§1) Enzyme Binding Assays (KINOMEscan®)
(§2) Kinase enzyme binding affinities of compounds disclosed herein were determined using the KINOMEscan technology performed by DiscoveRx Corporation, San Diego, Calif., USA (www.kinomescan.com). Table A reports the obtained Kd values (nM), with the Kd being the inhibitor binding constant (‘n.d.’ means not determined): […]

T1 sequence (P48736 whole entry): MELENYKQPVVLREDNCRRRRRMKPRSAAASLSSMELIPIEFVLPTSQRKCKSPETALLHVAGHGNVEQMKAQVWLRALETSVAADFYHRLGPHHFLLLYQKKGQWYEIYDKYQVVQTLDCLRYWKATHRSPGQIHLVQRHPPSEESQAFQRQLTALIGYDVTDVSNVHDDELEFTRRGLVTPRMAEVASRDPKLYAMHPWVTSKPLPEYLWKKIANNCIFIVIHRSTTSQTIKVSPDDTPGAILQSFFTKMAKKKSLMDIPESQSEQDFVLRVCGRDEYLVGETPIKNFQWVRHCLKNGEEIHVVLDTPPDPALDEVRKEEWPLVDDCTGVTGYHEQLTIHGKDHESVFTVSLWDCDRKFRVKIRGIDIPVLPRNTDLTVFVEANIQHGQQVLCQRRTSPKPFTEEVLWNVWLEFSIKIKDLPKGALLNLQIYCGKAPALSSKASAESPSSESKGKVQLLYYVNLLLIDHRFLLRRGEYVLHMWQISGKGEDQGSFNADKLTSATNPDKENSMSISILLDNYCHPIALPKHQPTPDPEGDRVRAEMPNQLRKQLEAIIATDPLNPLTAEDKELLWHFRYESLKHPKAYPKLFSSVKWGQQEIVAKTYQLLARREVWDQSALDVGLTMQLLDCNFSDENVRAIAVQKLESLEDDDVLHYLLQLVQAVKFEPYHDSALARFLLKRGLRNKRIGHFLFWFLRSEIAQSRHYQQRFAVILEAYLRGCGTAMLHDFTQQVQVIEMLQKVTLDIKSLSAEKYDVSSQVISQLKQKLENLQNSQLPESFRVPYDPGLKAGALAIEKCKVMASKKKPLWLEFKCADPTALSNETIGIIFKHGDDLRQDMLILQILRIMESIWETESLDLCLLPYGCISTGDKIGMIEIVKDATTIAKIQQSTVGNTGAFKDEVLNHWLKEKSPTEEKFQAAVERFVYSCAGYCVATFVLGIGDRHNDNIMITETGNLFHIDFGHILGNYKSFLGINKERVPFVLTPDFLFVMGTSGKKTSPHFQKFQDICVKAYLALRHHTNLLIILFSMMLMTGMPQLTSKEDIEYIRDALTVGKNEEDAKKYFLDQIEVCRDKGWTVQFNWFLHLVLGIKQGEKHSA

Row | Compound | pKd
1 | Cc1nc2cnc(N3CCOCC3)cc2n1Cc1cccc2c1CN(CCO)CC2 [Compound 11] | 4.49
2 | Cc1nc2cnc(N3CCOCC3)cc2n1Cc1cccc2c1CNCC2 [Compound 9] | < 4.52
3 | Cc1c(Cn2c(CN3CCS(=O)(=O)CC3)nc3cnc(N4CCOCC4)cc32)cccc1C(F)(F)F [Compound 8] | < 4.52
4 | Cc1c(Cn2c(C)nc3cnc(N4CCOCC4)cc32)cccc1C(F)(F)F [Compound 2] | 4.65
5 | Cc1c(Cl)cccc1Cn1c(CN2CCS(=O)(=O)CC2)nc2cnc(N3CCOCC3)cc21 [Compound 5] | < 4.52
6 | Cc1c(Cl)cccc1Cn1c(C)nc2cnc(N3CCOCC3)cc21 [Compound 1] | 5.02
7 | Cc1c(Cn2c(C)nc3cnc(C4=CCOCC4)cc32)cccc1C(F)(F)F [Compound 13] | 4.77
8 | Cc1c(Cn2c(C)nc3c(N)nc(C4=CCOCC4)cc32)cccc1C(F)(F)F [Compound 4] | < 4.52

target: T2, PIK3Cδ_h (Homo sapiens, UniProt O00329); assay: KINOMEscan enzyme binding assay, PIK3Cδ; conditions: KINOMEscan (DiscoveRx)
T2 construct: purchased DiscoveRx Corporation, San Diego (contract assay service)
T2 sequence (O00329 1-1044): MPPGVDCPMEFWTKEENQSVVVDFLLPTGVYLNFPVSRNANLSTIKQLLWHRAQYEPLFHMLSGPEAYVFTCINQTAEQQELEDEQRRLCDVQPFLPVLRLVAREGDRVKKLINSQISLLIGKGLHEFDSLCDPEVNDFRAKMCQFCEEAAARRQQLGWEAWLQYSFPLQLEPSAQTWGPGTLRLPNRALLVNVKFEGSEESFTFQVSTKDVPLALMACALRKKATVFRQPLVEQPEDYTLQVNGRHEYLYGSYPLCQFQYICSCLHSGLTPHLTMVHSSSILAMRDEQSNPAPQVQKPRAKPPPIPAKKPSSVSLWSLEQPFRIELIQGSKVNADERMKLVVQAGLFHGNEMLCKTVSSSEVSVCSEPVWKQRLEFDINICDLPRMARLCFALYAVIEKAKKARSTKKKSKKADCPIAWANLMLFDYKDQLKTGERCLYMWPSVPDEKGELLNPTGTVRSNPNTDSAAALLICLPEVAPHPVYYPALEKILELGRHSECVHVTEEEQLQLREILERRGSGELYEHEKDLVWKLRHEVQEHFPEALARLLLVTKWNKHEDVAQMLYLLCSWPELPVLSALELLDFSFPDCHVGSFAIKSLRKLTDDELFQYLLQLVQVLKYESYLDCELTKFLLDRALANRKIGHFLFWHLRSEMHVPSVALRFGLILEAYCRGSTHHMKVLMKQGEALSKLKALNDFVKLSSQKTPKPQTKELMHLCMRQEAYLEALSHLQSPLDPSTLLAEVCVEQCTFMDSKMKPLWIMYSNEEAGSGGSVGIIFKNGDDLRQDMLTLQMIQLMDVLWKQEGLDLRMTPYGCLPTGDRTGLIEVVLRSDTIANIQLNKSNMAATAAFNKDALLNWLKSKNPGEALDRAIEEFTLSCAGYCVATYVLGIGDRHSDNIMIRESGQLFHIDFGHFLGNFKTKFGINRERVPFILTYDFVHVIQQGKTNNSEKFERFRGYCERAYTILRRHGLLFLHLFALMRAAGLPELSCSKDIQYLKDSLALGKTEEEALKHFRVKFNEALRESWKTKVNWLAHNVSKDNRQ
Description: as §1, §2

Row | Compound | pKd
9 | Cc1nc2cnc(N3CCOCC3)cc2n1Cc1cccc2c1CN(CCO)CC2 [Compound 11] | 5.89
10 | Cc1nc2cnc(N3CCOCC3)cc2n1Cc1cccc2c1CNCC2 [Compound 9] | 5.29
11 | Cc1c(Cn2c(CN3CCS(=O)(=O)CC3)nc3cnc(N4CCOCC4)cc32)cccc1C(F)(F)F [Compound 8] | 5.59
12 | Cc1c(Cn2c(C)nc3cnc(N4CCOCC4)cc32)cccc1C(F)(F)F [Compound 2] | 5.82
13 | Cc1c(Cl)cccc1Cn1c(CN2CCS(=O)(=O)CC2)nc2cnc(N3CCOCC3)cc21 [Compound 5] | 5.82
14 | Cc1c(Cl)cccc1Cn1c(C)nc2cnc(N3CCOCC3)cc21 [Compound 1] | 6.22
15 | Cc1c(Cn2c(C)nc3cnc(C4=CCOCC4)cc32)cccc1C(F)(F)F [Compound 13] | 5.89
16 | Cc1c(Cn2c(C)nc3c(N)nc(C4=CCOCC4)cc32)cccc1C(F)(F)F [Compound 4] | 5.37

test system: phosphorylation of Akt (Thr308) in PC-3 cells; assay: Cellular assay: phospho-Akt (Thr308) MSD ELISA in PC-3 cells; type: cell-based; conditions: Homo sapiens, 1 h, 60 min compound incubation, read-out: IC50 pAkt_Thr308
Description: (§3) Cellular activity of PI3K(3 inhibitors was determined by quantifying the phosphorylation of Akt in PC-3 cells. Akt phosphorylated at Ser473 and Thr308 were measured using an enzyme-linked immunosorbent assay (ELISA; Meso Scale Discovery (MSD), Gaithersburg, Md.) and specific primary antibodies from MSD.
(§4) On day 1, PC3 cells (ATCC # […]) were seeded into PerkinElmer MW96 plates at 25.000 cells per well, in 75 μl complete culture medium (DMEM high glucose, AQmedia™, D0819, Sigma-Aldrich) containing 10% heat inactivated FCS and incubated at 37° C., 5% CO2 during 24 hours. On day 2, compound or DMSO (0.3%) was added and cells were further incubated for 60 min at 37° C., 5% CO2 in a total volume of 100 μl of medium.
(§5) The phosphoprotein assay was executed according to vendor instructions in the Phospho-Akt (Ser473) Assay Whole Cell Lysate Kit (MSD # K15100D-3) and the Phospho-Akt (Thr308) Assay Whole Cell Lysate Kit (MSD # K151DYD-3) using the lysis, blocking and wash buffer provided.
(§6) Briefly, at the end of the cell treatment period, media were removed by aspiration and adherent cells were lysed in 50 μl ice-cold lysis buffer. MSD plates are supplied pre-coated with capture antibodies for Phospho-Akt (Ser473 and Thr308). After blocking, lysates from tissue culture plates were added and plates were washed. Then, a solution containing the detection antibody (anti-total Akt conjugated with an electrochemiluminescent compound-MSD Sulfo-tag label) was added. The signals were detected using an MSD SECTOR Imager 6000 and are proportional to the phospho-Akt titres.
(§7) Data were processed. The percentage of inhibition was plotted against the log concentration of test compounds, and the sigmoidal log concentration-effect curve of best fit was calculated by nonlinear regression analysis. From these concentration-response curves, the IC50 values were calculated. Five concentrations were used for curve fitting.

Row | Compound | pIC50
17 | Cc1nc2cnc(N3CCOCC3)cc2n1Cc1cccc2c1CN(CCO)CC2 [Compound 11] | < 6.29
18 | Cc1nc2cnc(N3CCOCC3)cc2n1Cc1cccc2c1CNCC2 [Compound 9] | ~6.34
19 | Cc1c(Cn2c(CN3CCS(=O)(=O)CC3)nc3cnc(N4CCOCC4)cc32)cccc1C(F)(F)F [Compound 8] | 6.54
20 | Cc1c(Cn2c(C)nc3cnc(N4CCOCC4)cc32)cccc1C(F)(F)F [Compound 2] | 6.37
21 | Cc1c(Cl)cccc1Cn1c(CN2CCS(=O)(=O)CC2)nc2cnc(N3CCOCC3)cc21 [Compound 5] | 6.89
22 | Cc1c(Cl)cccc1Cn1c(C)nc2cnc(N3CCOCC3)cc21 [Compound 1] | 7.52
23 | Cc1c(Cn2c(C)nc3cnc(C4=CCOCC4)cc32)cccc1C(F)(F)F [Compound 13] | 7.10
24 | Cc1c(Cn2c(C)nc3c(N)nc(C4=CCOCC4)cc32)cccc1C(F)(F)F [Compound 4] | 6.82

target: T3, PIK3Cα_h (Homo sapiens, UniProt P42336); assay: KINOMEscan enzyme binding assay, PIK3Cα; conditions: KINOMEscan (DiscoveRx)
T3 construct: purchased DiscoveRx Corporation, San Diego (contract assay service)
T3 sequence (P42336 whole entry): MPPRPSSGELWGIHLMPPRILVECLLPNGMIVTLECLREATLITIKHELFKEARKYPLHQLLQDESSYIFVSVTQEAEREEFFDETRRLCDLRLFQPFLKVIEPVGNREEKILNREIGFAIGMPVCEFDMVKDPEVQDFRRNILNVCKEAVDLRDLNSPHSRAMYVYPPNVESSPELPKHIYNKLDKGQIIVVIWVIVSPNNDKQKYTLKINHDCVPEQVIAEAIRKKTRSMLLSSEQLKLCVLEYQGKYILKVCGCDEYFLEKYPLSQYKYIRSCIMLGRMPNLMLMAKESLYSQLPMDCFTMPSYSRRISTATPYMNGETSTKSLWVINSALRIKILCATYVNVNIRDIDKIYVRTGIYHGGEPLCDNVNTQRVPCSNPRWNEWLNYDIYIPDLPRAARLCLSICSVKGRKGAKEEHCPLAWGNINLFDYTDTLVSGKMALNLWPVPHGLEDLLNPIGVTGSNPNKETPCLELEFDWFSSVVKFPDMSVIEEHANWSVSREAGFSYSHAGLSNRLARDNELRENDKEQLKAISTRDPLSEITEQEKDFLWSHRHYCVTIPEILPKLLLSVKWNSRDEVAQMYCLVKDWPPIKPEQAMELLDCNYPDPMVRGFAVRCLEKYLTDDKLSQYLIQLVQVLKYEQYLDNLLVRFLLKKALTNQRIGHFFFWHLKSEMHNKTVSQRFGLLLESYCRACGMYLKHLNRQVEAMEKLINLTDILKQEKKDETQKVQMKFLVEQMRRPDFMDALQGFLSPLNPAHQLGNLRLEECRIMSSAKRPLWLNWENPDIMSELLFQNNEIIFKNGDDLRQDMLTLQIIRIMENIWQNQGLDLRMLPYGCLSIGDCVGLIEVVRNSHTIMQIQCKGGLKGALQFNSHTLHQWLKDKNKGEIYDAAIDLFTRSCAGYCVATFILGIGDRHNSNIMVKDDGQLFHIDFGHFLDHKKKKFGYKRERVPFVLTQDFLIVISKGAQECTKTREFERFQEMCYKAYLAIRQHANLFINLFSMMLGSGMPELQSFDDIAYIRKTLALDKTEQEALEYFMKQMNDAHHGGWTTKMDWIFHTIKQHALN
Description: as §1, §2

Row | Compound | pKd
25 | Cc1nc2cnc(N3CCOCC3)cc2n1Cc1cccc2c1CN(CCO)CC2 [Compound 11] | 5.06
26 | Cc1nc2cnc(N3CCOCC3)cc2n1Cc1cccc2c1CNCC2 [Compound 9] | < 4.52
27 | Cc1c(Cn2c(CN3CCS(=O)(=O)CC3)nc3cnc(N4CCOCC4)cc32)cccc1C(F)(F)F [Compound 8] | 4.96
28 | Cc1c(Cn2c(C)nc3cnc(N4CCOCC4)cc32)cccc1C(F)(F)F [Compound 2] | 5.43
29 | Cc1c(Cl)cccc1Cn1c(CN2CCS(=O)(=O)CC2)nc2cnc(N3CCOCC3)cc21 [Compound 5] | 5.59
30 | Cc1c(Cl)cccc1Cn1c(C)nc2cnc(N3CCOCC3)cc21 [Compound 1] | 5.68
31 | Cc1c(Cn2c(C)nc3cnc(C4=CCOCC4)cc32)cccc1C(F)(F)F [Compound 13] | 5.23
32 | Cc1c(Cn2c(C)nc3c(N)nc(C4=CCOCC4)cc32)cccc1C(F)(F)F [Compound 4] | 4.77

target: T4, MTOR_h (Homo sapiens, UniProt P42345); assay: KINOMEscan enzyme binding assay, MTOR; conditions: KINOMEscan (DiscoveRx)
T4 construct: purchased DiscoveRx Corporation, San Diego (contract assay service)
Description: as §1, §2

Row | Compound | pKd
33 | Cc1nc2cnc(N3CCOCC3)cc2n1Cc1cccc2c1CN(CCO)CC2 [Compound 11] | < 4.52
34 | Cc1nc2cnc(N3CCOCC3)cc2n1Cc1cccc2c1CNCC2 [Compound 9] | < 4.52
35 | Cc1c(Cn2c(CN3CCS(=O)(=O)CC3)nc3cnc(N4CCOCC4)cc32)cccc1C(F)(F)F [Compound 8] | < 4.52
36 | Cc1c(Cn2c(C)nc3cnc(N4CCOCC4)cc32)cccc1C(F)(F)F [Compound 2] | < 4.52
37 | Cc1c(Cl)cccc1Cn1c(CN2CCS(=O)(=O)CC2)nc2cnc(N3CCOCC3)cc21 [Compound 5] | < 4.52
38 | Cc1c(Cl)cccc1Cn1c(C)nc2cnc(N3CCOCC3)cc21 [Compound 1] | ≤ 4.52
39 | Cc1c(Cn2c(C)nc3cnc(C4=CCOCC4)cc32)cccc1C(F)(F)F [Compound 13] | < 4.52
40 | Cc1c(Cn2c(C)nc3c(N)nc(C4=CCOCC4)cc32)cccc1C(F)(F)F [Compound 4] | < 4.52

target: T5, PIK3Cβ_h (Homo sapiens, UniProt P42338); assay: KINOMEscan enzyme binding assay, PIK3Cβ; conditions: KINOMEscan (DiscoveRx)
T5 construct: purchased DiscoveRx Corporation, San Diego (contract assay service)
T5 sequence (P42338 whole entry): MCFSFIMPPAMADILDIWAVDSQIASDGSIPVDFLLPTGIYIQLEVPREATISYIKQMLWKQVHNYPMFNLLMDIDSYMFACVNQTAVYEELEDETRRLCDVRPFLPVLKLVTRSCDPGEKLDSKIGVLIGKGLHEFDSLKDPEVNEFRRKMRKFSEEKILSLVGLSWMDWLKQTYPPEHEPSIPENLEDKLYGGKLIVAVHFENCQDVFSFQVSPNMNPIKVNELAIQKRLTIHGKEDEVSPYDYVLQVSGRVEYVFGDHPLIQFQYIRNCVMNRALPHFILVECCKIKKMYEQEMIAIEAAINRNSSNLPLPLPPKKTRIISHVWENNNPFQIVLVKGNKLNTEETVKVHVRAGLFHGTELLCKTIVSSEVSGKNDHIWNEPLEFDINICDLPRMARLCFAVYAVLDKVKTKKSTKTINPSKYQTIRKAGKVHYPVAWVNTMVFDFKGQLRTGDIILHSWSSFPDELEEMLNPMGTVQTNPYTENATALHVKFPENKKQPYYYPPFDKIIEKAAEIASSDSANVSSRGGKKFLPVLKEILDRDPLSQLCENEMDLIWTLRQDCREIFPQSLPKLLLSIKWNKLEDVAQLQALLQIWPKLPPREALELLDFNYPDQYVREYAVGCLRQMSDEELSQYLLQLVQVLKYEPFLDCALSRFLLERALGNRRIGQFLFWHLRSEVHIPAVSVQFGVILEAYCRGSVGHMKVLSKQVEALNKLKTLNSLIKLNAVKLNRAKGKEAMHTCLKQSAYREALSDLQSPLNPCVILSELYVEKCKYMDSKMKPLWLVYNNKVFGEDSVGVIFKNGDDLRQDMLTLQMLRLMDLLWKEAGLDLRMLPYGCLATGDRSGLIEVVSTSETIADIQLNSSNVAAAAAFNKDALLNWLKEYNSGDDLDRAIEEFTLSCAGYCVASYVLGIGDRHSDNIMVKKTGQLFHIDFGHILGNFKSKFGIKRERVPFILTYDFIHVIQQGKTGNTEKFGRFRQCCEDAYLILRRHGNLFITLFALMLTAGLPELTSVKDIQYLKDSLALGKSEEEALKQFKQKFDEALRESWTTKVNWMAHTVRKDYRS
Description: as §1, §2

Row | Compound | pKd
41 | Cc1nc2cnc(N3CCOCC3)cc2n1Cc1cccc2c1CN(CCO)CC2 [Compound 11] | 7.57
42 | Cc1nc2cnc(N3CCOCC3)cc2n1Cc1cccc2c1CNCC2 [Compound 9] | 7.10
43 | Cc1c(Cn2c(CN3CCS(=O)(=O)CC3)nc3cnc(N4CCOCC4)cc32)cccc1C(F)(F)F [Compound 8] | 7.96
44 | Cc1c(Cn2c(C)nc3cnc(N4CCOCC4)cc32)cccc1C(F)(F)F [Compound 2] | 8.70
45 | Cc1c(Cl)cccc1Cn1c(CN2CCS(=O)(=O)CC2)nc2cnc(N3CCOCC3)cc21 [Compound 5] | 8.40
46 | Cc1c(Cl)cccc1Cn1c(C)nc2cnc(N3CCOCC3)cc21 [Compound 1] | 8.70
47 | Cc1c(Cn2c(C)nc3cnc(C4=CCOCC4)cc32)cccc1C(F)(F)F [Compound 13] | 8.52
48 | Cc1c(Cn2c(C)nc3c(N)nc(C4=CCOCC4)cc32)cccc1C(F)(F)F [Compound 4] | 8.05

test system: phosphorylation of Akt (Ser473) in PC-3 cells; assay: Cellular assay: phospho-Akt (Ser473) MSD ELISA in PC-3 cells; type: cell-based; conditions: Homo sapiens, 1 h, 60 min compound incubation, read-out: IC50 pAkt_S473
Description: as §3, §4, §5, §6, §7

Row | Compound | pIC50
49 | Cc1nc2cnc(N3CCOCC3)cc2n1Cc1cccc2c1CN(CCO)CC2 [Compound 11] | < 6.29
50 | Cc1nc2cnc(N3CCOCC3)cc2n1Cc1cccc2c1CNCC2 [Compound 9] | ~6.32
51 | Cc1c(Cn2c(C)nc3cnc(N4CCOCC4)cc32)cccc1C(F)(F)F [Compound 2] | 6.74
52 | Cc1c(Cl)cccc1Cn1c(CN2CCS(=O)(=O)CC2)nc2cnc(N3CCOCC3)cc21 [Compound 5] | ~7.00
53 | Cc1c(Cl)cccc1Cn1c(C)nc2cnc(N3CCOCC3)cc21 [Compound 1] | 7.40
54 | Cc1c(Cn2c(C)nc3cnc(C4=CCOCC4)cc32)cccc1C(F)(F)F [Compound 13] | 6.77
55 | Cc1c(Cn2c(C)nc3c(N)nc(C4=CCOCC4)cc32)cccc1C(F)(F)F [Compound 4] | ~6.85

Reference: US20190263804A1, “AZABENZIMIDAZOLE DERIVATIVES AS PI3K BETA INHIBITORS” (Janssen Pharmaceutica NV, priority 2016, published 2019)
